Structures can show the parent of a compound that is named as a salt.
system: IL-5 production; assay: Test 3: inhibition of IL-5 production in human PBMC stimulated with ConA; format: cell-based; conditions: 10^-6 M, 10 μg/ml ConA, 48 hours, read-out: Inhibition rate of IL-5 production
Description: Test 3: Test on the inhibition of IL-5 production
The peripheral blood was collected from a normal volunteer and peripheral blood mononuclear cells (PBMC) of the human peripheral blood were separated therefrom by the specific gravity centrifugation method. They were suspended in an AIM-V medium and their cell count was adjusted. To individual wells of a 96-well incubation plate, 1×10^6 cells/ml of PBMC were poured, followed by the addition of a stimulator (10 μg/ml of ConA) and a medicament. The resulting mixture was incubated in 5% CO2 at 37° C. for 48 hours. After incubation, 50 μl of the supernatant were collected and subjected to measurement by a human IL-5 EIA kit (BIO SOURCE, INC.). The inhibition rate was calculated according to the following formula. [formula]

SMILES	inhibition at 1 µM
CCCCCC(=O)/C=C/c1cc(OCCCCCC(=O)OCC)c(OCc2ccccc2)cn1 [Ex. 14, Ethyl 6-[5-benzyloxy-2-(3-oxo-1-octenyl)-4-pyridyloxy]hexanoate]	90.2%
Oc1cnc(/C=C/C(O)c2ccccc2)cc1O (stereo not drawn) [Ex. 25, 4,5-Dihydroxy-2-(3-hydroxy-3-phenyl-1-propenyl)pyridine]	97.5%
COC(=O)CCCCCOc1cc(/C=C/C(O)c2ccccc2)ncc1OC (stereo not drawn) [Ex. 26, Methyl 6-[2-(3-hydroxy-3-phenyl-1-propenyl)-5-methoxy-4-pyridyloxy]hexanoate]	83.7%
CCOC(=O)CCCCCOc1cc(/C=C/C(O)c2ccccc2)ncc1OC (stereo not drawn) [Ex. 27, Ethyl 6-[2-(3-hydroxy-3-phenyl-1-propenyl)-5-methoxy-4-pyridyloxy]hexanoate]	89.6%
COC(=O)CCCOc1cnc(/C=C/C(O)c2ccccc2)cc1OC (stereo not drawn) [Ex. 28, Methyl 4-[2-(3-hydroxy-3-phenyl-1-propenyl)-4-methoxy-5-pyridyloxy]butanoate]	72.1%
COC(=O)CCCOc1cc(/C=C/C(O)c2ccccc2)ncc1OC (stereo not drawn) [Ex. 29, Methyl 4-[2-(3-hydroxy-3-phenyl-1-propenyl)-5-methoxy-4-pyridyloxy]butanoate]	99.8%
COC(=O)CCCOc1cnc(/C=C/C(O)C2CCCC2)cc1OC (stereo not drawn) [Ex. 32, Methyl 4-[2-(3-cyclopentyl-3-hydroxy-1-propenyl)-4-methoxy-5-pyridyloxy]butanoate]	80.7%
COc1cnc(/C=C/C(O)c2ccccc2)cc1OCCCC(=O)O (stereo not drawn) [Ex. 34, 4-[2-(3-Hydroxy-3-phenyl-1-propenyl)-5-methoxy-4-pyridyloxy]butanoic acid]	61%
COc1cc(/C=C/C(O)C2CCCC2)ncc1OCCCC(=O)O (stereo not drawn) [Ex. 37, 4-[2-(3-Cyclopentyl-3-hydroxy-1-propenyl)-4-methoxy-5-pyridyloxy]butanoic acid hydrochloride]	72.6%
CCCCCC(O)/C=C/c1cc(OCCCC(=O)O)c(O)cn1 (stereo not drawn) [Ex. 39, 4-[5-Hydroxy-2-(3-hydroxy-1-octenyl)-4-pyridyloxy]butanoic acid hydrochloride]	97.6%
CCCCCC(O)/C=C/c1cc(OCCCC(=O)O)c(OC)cn1 (stereo not drawn) [Ex. 40, 4-[2-(3-Hydroxy-1-octenyl)-5-methoxy-4-pyridyloxy]butanoic acid hydrochloride]	97.5%
CCCCCC(O)/C=C/c1cc(OC)c(OCCCCC(=O)O)cn1 (stereo not drawn) [Ex. 41, 5-[2-(3-Hydroxy-1-octenyl)-4-methoxy-5-pyridyloxy]pentanoic acid hydrochloride]	91%
COC(=O)CCCCCOc1cc(/C=C/C(=O)c2ccccc2)ncc1OC [Ex. 42, methyl 6-[5-methoxy-2-(3-oxo-3-phenyl-1-propenyl)-4-pyridyloxy]hexanoate]	77.5%
COc1cnc(/C=C/C(=O)c2ccccc2OC)cc1OC [Ex. 49]	65%
COc1ccc(C(=O)/C=C/c2cc(OC)c(OC)cn2)cc1 [Ex. 50, 4,5-Dimethoxy-2-[3-(4-methoxyphenyl)-3-oxo-1-propenyl]pyridine]	79.4%
CCOc1cnc(/C=C/C(=O)c2ccccc2)cc1O [Ex. 55, 5-Ethoxy-4-hydroxy-2-(^3-oxo-3-phenyl-1-propenyl]pyridine]	97.5%
COc1ccc(OC)c(C(=O)/C=C/c2cc(O)c(OC)cn2)c1 [Ex. 57, 4-Hydroxy-5-methoxy-2-[3-(2,5-dimethoxyphenyl)-3-oxo-1-propenyl]pyridine]	82.5%
COc1cnc(/C=C/C(=O)c2ccc(OC)c(OC)c2)cc1O [Ex. 58, 4-Hydroxy-5-methoxy-2-[3-(3,4-dimethoxyphenyl)-3-oxo-1-propenyl]pyridine hydrochloride]	91.3%
COc1ccc(C(=O)/C=C/c2cc(O)c(OC)cn2)c(OC)c1 [Ex. 59, 4-Hydroxy-5-methoxy-2-[3-(2,4-dimethoxyphenyl)-3-oxo-1-propenyl]pyridine]	78.9%
COc1cnc(/C=C/C(=O)c2ccccc2OC)cc1O [Ex. 60, 4-Hydroxy-5-methoxy-2-[3-(2-methoxyphenyl)-3-oxo-1-propenyl]pyridine]	91.4%
COc1cnc(/C=C/C(=O)c2cc(OC)c(OC)c(OC)c2)cc1O [Ex. 61, 4-Hydroxy-5-methoxy-2-[3-oxo-3-(3,4,5-trimethoxyphenyl)-1-propenyl]pyridinehydrochloride]	79.4%
COc1cnc(/C=C/C(=O)c2ccco2)cc1OC [Ex. 62, 4,5-Dimethoxy-2-[3-(2-furyl)-3-oxo-1-propenyl]pyridine]	72.3%
COc1cnc(/C=C/C(=O)c2cccs2)cc1OC [Ex. 63, 4,5-Dimethoxy-2-[3-oxo-3-(2-thienyl)-1-propenyl]pyridine]	81%

SMILES	inhibition at 1 µM
COc1cnc(/C=C/C(=O)c2ccsc2)cc1OC [Ex. 64, 4,5-Dimethoxy-2-[3-oxo-3-(3-thienyl)-1-propenyl]pyridine]	82.1%
COc1cnc(/C=C/C(=O)c2ccsc2)cc1O [Ex. 65, 4-Hydroxy-5-methoxy-2-[3-oxo-3-(3-thienyl)-1-propenyl]pyridine]	77.2%
COc1cnc(/C=C/C(=O)c2ccccn2)cc1OC [Ex. 66, 4,5-dimethoxy-2-[3-oxo-3-(2-pyridyl)-1-propenyl]pyridine]	70.1%
COc1cnc(/C=C/C(=O)c2cccnc2)cc1OC [Ex. 67, 4,5-Dimethoxy-2-[3-oxo-3-(3-pyridyl)-1-propenyl]pyridine]	77.9%
COc1cnc(/C=C/C(=O)c2ccncc2)cc1OC [Ex. 68, 4,5-Dimethoxy-2-[3-oxo-3-(4-pyridyl)-1-propenyl]pyridine]	95.4%
CCOC(=O)CCCCCOc1cc(/C=C/C(=O)c2ccccn2)ncc1OC [Ex. 69, Ethyl 6-[5-methoxy-2-(3-oxo-3-(2-pyridyl)-1-propenyl]-4-pyridyloxy]hexanoate]	73.1%
COc1cnc(/C=C/C(=O)C2CCCCC2)cc1O [Ex. 75, 2-(3-Cyclohexyl-3-oxo-1-propenyl)-4-hydroxy-5-methoxypyridine hydrochloride]	90.6%
CCOC(=O)CCCOc1cc(/C=C/C(=O)C2CCCC2)ncc1OC [Ex. 79, Ethyl 4-[2-(3-cyclopentyl-3-oxo-1-propenyl)-5-methoxy-4-pyridyloxy]butanoate hyd rochloride]	64.1%
CCOC(=O)CCCOc1cc(/C=C/C(=O)C2CCC2)ncc1OC [Ex. 80, Ethyl 4-[2-(3-cyclobutyl-3-oxo-1-propenyl)-5-methoxy-4-pyridyloxy]butanoatehydrochloride]	69.2%
CCOC(=O)COc1cnc(/C=C/C(=O)c2ccccc2)cc1OC [Ex. 81, Ethyl [4-methoxy-6-(3-oxo-3-phenyl-1-propenyl)-3-pyridyloxy]acetate]	72.7%
CCOC(=O)CCCOc1cnc(/C=C/C(=O)c2ccccc2)cc1OC [Ex. 82, Ethyl 4-[4-methoxy-6-(3-oxo-3-phenyl-1-propenyl)-3-pyridyloxy]butanoate]	69.6%
CCOC(=O)CCCCCOc1cnc(/C=C/C(=O)c2ccccc2)cc1OC [Ex. 83, Ethyl 6-[4-methoxy-6-(3-oxo-3-phenyl-1-propenyl)-3-pyridyloxy]hexanoate]	96.2%
CCOC(=O)CCCOc1cc(/C=C/C(=O)c2ccccc2)ncc1OCC [Ex. 84, Ethyl 4-[5-ethoxy-2-(3-oxo-3-phenyl-1-propenyl)-4-pyridyloxy]butanoate hydrochloride]	89.4%
CCOC(=O)CCCCOc1cc(/C=C/C(=O)c2cc(OC)ccc2OC)ncc1OC [Ex. 89, Ethyl 5-[5-methoxy-2-(3-(2,5-dimethoxyphenyl)-3-oxo-1-propenyl)-4-pyridyloxy]pentanoate]	82.1%
CCOC(=O)CCCOc1cc(/C=C/C(=O)c2ccccc2OC)ncc1OC [Ex. 93, Ethyl 4-[5-methoxy-2-(3-(2-methoxyphenyl)-3-oxo-7-propenyl)-4-pyridyloxy]butanoate hydrochloride]	66%
CCOC(=O)CCCCCOc1cc(/C=C/C(=O)c2cc(OC)c(OC)c(OC)c2)ncc1OC [Ex. 101, Ethyl 6-[5-methoxy-2-(3-oxo-3-(3,4,5-trimethoxyphenyl)-1-propenyl)-4-pyridyloxy]hexanoate hydrochloride]	95.6%
COc1cnc(/C=C/C(=O)c2cc(OC)c(OC)c(OC)c2)cc1OCCCCCCO [Ex. 102, 6-[5-Methoxy-2-(3-oxo-3-(3,4,5-trimethoxyphenyl)-1-propenyl)-4-pyridyloxy]hexyl alcohol hydrochloride]	97.3%
COc1cnc(/C=C/C(=O)c2ccccc2)cc1OCCCCCC(=O)O [Ex. 103, 6-[5-Methoxy-2-(3-oxo-3-phenyl-1-propenyl)-4-pyridyloxy]hexanoic acid]	72.4%
CCOc1cnc(/C=C/C(=O)c2ccccc2)cc1OCCCC(=O)O [Ex. 104, 4-[5-Ethoxy-2-(3-oxo-3-phenyl-1-propenyl)-4-pyridyloxy]butanoic acid hydrochloride]	89.3%
COc1cnc(/C=C/C(=O)N2CCCCC2)cc1OC [Ex. 107, 4,5-dimethoxy-2-(3-oxo-3-piperidino-1-propenyl)pyridine hydrochloride]	71.9%
COc1cnc(/C=C/C(=O)N2CCCC2)cc1OC [Ex. 108, 4,5-Dimethoxy-2-(3-oxo-3-pyrrolidino-1-propenyl)pyridine hydrochloride]	78.5%
COc1cnc(/C=C/C(=O)N2CCCCCC2)cc1OC [Ex. 109, 4,5-Dimethoxy-2-[3-(1-azepanyl)-3-oxo-1-propenyl]pyridine hydrochloride]	83.8%

From patent US6046218A, “Pyridine derivative and medicament containing the same as an effective ingredient” (SS Pharmaceutical Co., Ltd., priority 1996, dated 2000)
